# Assays:
# human skin [1] = assay: Evaluation No.(8): Refreshing Effect Durability; assay type: in vivo; details: for Refreshing feeling (8): basic composition B
# Procedure: (ix) Evaluation No.(8): Refreshing Effect Durability A presence or absence of refreshing feeling for 120 minutes after use was evaluated by 10 special panelists. The evaluation criteria is as follows: • {circumflex over (◯)}: Not less than 8 special panelists recognized that there was refreshing feeling durability. • ◯: Not less than 6 and less than 8 special panelists recognized that there was refreshing feeling durability. • Δ: Not less than 3 and less than 6 special panelists recognized that there was refreshing feeling durability. • X: Less than 3 special panelists recognized that there was refreshing feeling durability.
# [2] = tested on: human skin (medial parts of brachiums); assay: Evaluation No.(7): Skin Stimulation Test B (smart feeling); assay type: in vivo
# Procedure: (viii) Evaluation No.(7): Skin Stimulation Test B
# A smart feeling when a sample applied on medial parts of brachiums of 10 panelists was graded based on the following criteria and, thereafter, an average was calculated: • 0: No smart feeling is perceived. • 1: Slight smart feeling or redness is perceived. • 2: Smart feeling or redness is perceived. • 3: Smart feeling and redness are perceived.
# (§1) The evaluation criteria of skin stimulation test B is as follows: • {circumflex over (◯)}: The average of 10 panelists is not less than 0 and less than 0.1 • ◯: The average of 10 panelists is not less than 0.1 and less than 0.15 • Δ: The average of 10 panelists is not less than 0.15 and less than 0.2 • X: The average of 10 panelists is not less than 0.2
# [3] = tested on: human skin (forearms of 10 panelists); assay: Conductance measuring test; assay type: in vivo; details: for Conductance 30 min-after / Conductance 60 min-after / Conductance 120 min-after: 10% aqueous solution; for Conductance 30 min-after: 30 minutes after application; for Conductance 60 min-after: 60 minutes after application; for Conductance 120 min-after: 120 minutes after application
# Procedure: (i) Conductance Measuring Test
# Using forearms of 10 panelists, the skin conductance was measured before application and for 30 minutes, 60 minutes and 120 minutes after application, and the moisturizing effect was evaluated from a change rate thereof. The change rate of the skin conductance is calculated by the following equation (II): Conductance change rate=[…].
# The change rate can be used for study of the influences on a water-absorbing property and a moisture retaining ability of a keratin layer. When this change rate is small, there is increase in the moisture in a keratin layer, thus, it can be evaluated that the moisturizing effect is high.
# The evaluation criteria of conductance measuring test is as follows: • {circumflex over (◯)}: The average of conductance change rate of 10 panelists is not less than 0 and less than 0.1 • ◯: The average of conductance change rate of 10 panelists is not less than 0.1 and less than 0.2 • Δ: The average of conductance change rate of 10 panelists is not less than 0.2 and less than 0.5 • X: The average of conductance change rate of 10 panelists is not less than 0.5
# human skin [4] = assay: Evaluation No.(3): Moisturizing Effect Feeling; assay type: in vivo; details: compound 5% by weight in basic composition A
# Procedure: (iv) Evaluation No.(3): Moisturizing Effect Feeling Practical test on the presence or absence of the moisturizing effect feeling for 120 minutes after use was performed by using 10 special panelists. The evaluation criteria is as follows: • {circumflex over (◯)}: Not less than 8 special panelists recognized that there was the moisturizing effect feeling. • ◯: Not less than 6 and less than 8 special panelists recognized that there was the moisturizing effect feeling. • Δ: Not less than 3 and less than 6 special panelists recognized that there was the moisturizing effect feeling. • X: Less than 3 special panelists recognized that there was the moisturizing effect feeling.
# rough skin on cheek = assay: Evaluation No.(4): Rough Skin Improving Effect Test; assay type: in vivo, human; details: compound 5% by weight in basic composition A
# Procedure: (v) Evaluation No.(4): Rough Skin Improving Effect Test A rough skin improving effect test was performed by using 10 panelists having rough skin on cheek. According to a test schedule, different skin lotions were applied on left and right cheeks for 1 week, and the effect was determined on the next day after the last day of the test period. The evaluation criteria is as follows: • {circumflex over (◯)}: Not less than 8 panelists recognized that the rough skin was improved. • ◯: Not less than 6 and less than 8 panelists recognized that the rough skin was improved. • Δ: Not less than 3 and less than 6 panelists recognized that the rough skin was improved. • X: Less than 3 panelists recognized that the rough skin was improved.
# [5] = tested on: human skin (medial parts of brachiums); assay: Evaluation No.(5): Skin Stimulation Test A (occluding patch); assay type: in vivo; details: compound 5% by weight in basic composition A
# Procedure: (iv) Evaluation No.(5): Skin Stimulation Test A
# Occluding patch was performed on medial parts of brachiums of 10 panelists for 24 hours and, thereafter, an average was calculated based on the following criteria: • 0: No abnormality is perceived. • 1: Slight redness is perceived. • 2: Redness is perceived. • 3: Redness and papula are perceived.
# as §1, with “A” for “B”
Molecule,"Refreshing feeling durability (8) (human skin [1]; Table 11, tested compound 5.0 wt % in basic composition B (L-menthol 0.1), 120 minutes after use)","Stimulation B (7) ([2]; Table 11, tested compound 5.0 wt % in basic composition B (L-menthol 0.1))",Conductance 30 min-after [3],Conductance 60 min-after [3],Conductance 120 min-after [3],"Evaluation in conductance measuring (120 min after) ([3]; Table 7, 5% alone in ion-exchange water 95%)","Moisturizing Evol. No. (3) (human skin [4]; Table 2, 120 minutes after use)",Evaluation (3) moisturizing effect feeling (human skin [4]; Table 4),"Rough skin Evol. No. (4) (rough skin on cheek; Table 2, applied 1 week)",Evaluation (4) rough skin improving effect (rough skin on cheek; Table 4),"Stimulation A Evol. No. (5) ([5]; Table 2, occluding patch 24 hours)",Evaluation (5) skin stimulation A ([5]; Table 4),"Refreshing feeling (8) (human skin [1]; Table 12, tested compound 5.0 wt %)","Refreshing feeling (8) (human skin [1]; Table 13, Y/X study)","Refreshing feeling (8) (human skin [1]; Table 14, tested compound 5.0 wt %)","Stimulation B (7) ([2]; Table 12, basic composition B, tested compound 5.0 wt %)","Stimulation B (7) ([2]; Table 13, Y/X study, basic composition B)","Stimulation B (7) ([2]; Table 14, basic composition B, tested compound 5.0 wt %)"
OCC(O)CO [Glycerin],X (Less than 3 special panelists recognized that there was refreshing feeling durability.),Δ (The average of 10 panelists is not less than 0.15 and less than 0.2),⊚ (The average of conductance change rate of 10 panelists is not less than 0 and less than 0.1),◯ (The average of conductance change rate of 10 panelists is not less than 0.1 and less than 0.2),◯ (The average of conductance change rate of 10 panelists is not less than 0.1 and less than 0.2),Δ (The average of conductance change rate of 10 panelists is not less than 0.2 and less than 0.5),,,,,,,,,,,,
Polyoxyethylene (10) polyoxypropylene (10) dimethyl ether [Compound 2],,,,,,,⊚ (Not less than 8 special panelists recognized that there was the moisturizing effect feeling.),⊚ (Not less than 8 special panelists recognized that there was the moisturizing effect feeling.),⊚ (Not less than 8 panelists recognized that the rough skin was improved.),⊚ (Not less than 8 panelists recognized that the rough skin was improved.),⊚ (The average of 10 panelists is not less than 0 and less than 0.1),⊚ (The average of 10 panelists is not less than 0 and less than 0.1),⊚ (Not less than 8 special panelists recognized that there was refreshing feeling durability.),⊚ (Not less than 8 special panelists recognized that there was refreshing feeling durability.),⊚ (Not less than 8 special panelists recognized that there was refreshing feeling durability.),⊚ (The average of 10 panelists is not less than 0 and less than 0.1),⊚ (The average of 10 panelists is not less than 0 and less than 0.1),⊚ (The average of 10 panelists is not less than 0 and less than 0.1)
"CC(O)CCO (stereo not drawn) [1,3-Butylene glycol]",,,Δ (The average of conductance change rate of 10 panelists is not less than 0.2 and less than 0.5),Δ (The average of conductance change rate of 10 panelists is not less than 0.2 and less than 0.5),Δ (The average of conductance change rate of 10 panelists is not less than 0.2 and less than 0.5),,,,,,,,,,,,,
